Test results taken from patent US12084445B2, “Broad-spectrum carbapenems” (VenatoRx Pharmaceuticals, Inc., priority 2018, dated 2024).

Legend:
Type in all cases: cell-based
[1] = test system: S. aureus ATCC 33591 (methicillin-resistant); assay: broth microdilution MIC assay, S. aureus ATCC 33591; settings: Staphylococcus aureus, ATCC33591; Table 4; S. aureus 33591; read-out: S. aureus 33591 MIC
Experimental: (§1) To determine the ability of test compounds to potentiate the inhibition of the growth of bacterial strains, classic cell-based broth microdilution MIC assays were employed. MIC assays are performed according to CLSI methods except where otherwise noted (CLSI, 2011 and CLSI, 2009). The reference strains S. aureus ATCC 29213 (methicillin sensitive), S. aureus ATCC 33591 (methicillin-resistant), E. coli ATCC 25922 (wild-type/QC strain), P. aeruginosa ATCC 27853 (wild-type/QC strain), and the clinical isolate P. aeruginosa PA 8 were used to determine the ability of the exemplary carbapenem compounds to inhibit bacterial growth. An expanded panel of methicillin resistance S. aureus (MRSA) and Pseudomonas was also used to determine the ability of exemplary carbapenem compounds to inhibit bacterial growth across a broader representation of those species. To determine activity in MRSA and in addition to S. aureus ATCC 33591, S. aureus USA 300, USA 400 and USA 600, some of the most common clones found to cause human infection, were also used. To further gauge the impact on the carbapenem compounds due to various resistance mechanisms in Pseudomonas, the following strains were included: P. aeruginosa 35151 (hyper-permeable strain), P. aeruginosa AmexAB-OprM (an efflux pump knockout), and P. aeruginosa PA 3 (a clinical isolate of reduced carbapenem susceptibility). Briefly, cryo-preserved bacterial cultures of clinical strains are streaked for isolation on appropriate agar medium, in this case Mueller Hinton II agar. Following incubation to allow formation of colonies, these plates are sealed with parafilm and stored refrigerated for up to two weeks. For preparation of assay inocula and to ensure low variability, at least 5 colonies are picked from the agar plates with an inoculating loop and aseptically transferred to a culture tube containing 3 mL of Mueller-Hinton Broth (supplemented with divalent cations to required levels based on Manufacturers' specification). The broth culture is grown for 3-5 hours at 37° C. with shaking at 200 rpm. Meanwhile, 2-fold serial dilutions of test compounds are conducted in a 96 well plate with a final volume of 75 μL per well at 2-fold the final desired concentration. After the dilution plates are set up the growing cultures are then diluted in a cuvette containing MH II broth and the optical density is measured at 600 nm. Inocula are diluted such that 75 μL of this culture in Mueller-Hinton Broth results in a starting bacterial concentration of 5×10^5 CFU/mL when added to the dilution plates. The plates are incubated 16-20 hours at 37° C. The MIC is read visually as the lowest concentration well with no bacterial growth.
(§2) Representative results are shown in Tables 3, 4, and 5 where A represents an MIC>32 μg/mL, B represents an MIC between 8 and 32 μg/mL inclusive, C represents an MIC between 1 and 4 μg/mL inclusive, and D represents an MIC of <1 μg/mL. NT=Not Tested.

[2] = test system: E. coli ATCC 25922 (wild-type/QC strain); assay: broth microdilution MIC assay, E. coli ATCC 25922; settings: Escherichia coli, ATCC25922; Table 4; E. coli 25922; read-out: E. coli 25922 MIC
Experimental: as §1, §2

[3] = test system: P. aeruginosa ATCC 27853 (wild-type/QC strain); assay: broth microdilution MIC assay, P. aeruginosa ATCC 27853; settings: Pseudomonas aeruginosa, ATCC27853; Table 5; P. aeruginosa 27853; read-out: P. aeruginosa 27853 MIC
Experimental: as §1, §2

[4] = test system: S. aureus USA 300; assay: broth microdilution MIC assay, S. aureus USA 300; settings: Staphylococcus aureus; Table 4; S. aureus USA300; read-out: S. aureus USA300 MIC
Experimental: as §1, §2

[5] = test system: S. aureus USA600; assay: broth microdilution MIC assay, S. aureus USA 600; settings: Staphylococcus aureus; Table 4; S. aureus USA600; read-out: S. aureus USA600 MIC
Experimental: as §1, §2

[6] = test system: P. aeruginosa 35151 (hyper-permeable strain); assay: broth microdilution MIC assay, P. aeruginosa 35151; settings: Pseudomonas aeruginosa, read-out: P. aeruginosa 35151 MIC
Experimental: as §1, §2

[7] = test system: P. aeruginosa ΔmexAB-OprM (an efflux pump knockout); assay: broth microdilution MIC assay, P. aeruginosa ΔmexAB-OprM; settings: Pseudomonas aeruginosa, 20 h, read-out: P. aeruginosa ΔmexAB-OprM MIC
Experimental: as §1, §2

SMILES | MIC [1] [µg/mL] | MIC [2] [µg/mL] | MIC [3] [µg/mL] | MIC [4] [µg/mL] | MIC [5] [µg/mL] | MIC [6] [µg/mL] | MIC [7] [µg/mL]
C[C@@H](O)[C@H]1C(=O)N2C(C(=O)O)=C(S[C@@H]3CCN(CC4CCN(C)CC4)C3)[C@H](C)[C@H]12 [Example 39, (4R,5S,6S)-6-((R)-1-hydroxyethyl)-4-methyl-3-(((R)-1-((1-methylpiperidin-4-yl)methyl)pyrrolidin-3-yl)thio)-7-oxo-1-azabicyclo[3.2.0]hept-2-ene-2-carboxylic acid] | 1 to 4 | < 1 | 1 to 4 | 1 to 4 | 1 to 4 | < 1 | 1 to 4
C[C@@H](O)[C@H]1C(=O)N2C(C(=O)O)=C(SC3CN(C[C@H]4CC[C@H](N)CC4)C3)[C@H](C)[C@H]12 [Example 62, (4R,5S,6S)-3-((1-(((1r,4R)-4-aminocyclohexyl)methyl)azetidin-3-yl)thio)-6-((R)-1-hydroxyethyl)-4-methyl-7-oxo-1-azabicyclo[3.2.0]hept-2-ene-2-carboxylic acid] | 1 to 4 | < 1 | 1 to 4 | 1 to 4 | < 1 | < 1 | 1 to 4
CN[C@H]1CC[C@H](CN2CC(SC3=C(C(=O)O)N4C(=O)[C@H]([C@@H](C)O)[C@H]4[C@H]3C)C2)CC1 [Example 68, (4R,5S,6S)-6-((R)-1-hydroxyethyl)-4-methyl-3-((1-(((1r,4R)-4-(methylamino)cyclohexyl)methyl)azetidin-3-yl)thio)-7-oxo-1-azabicyclo[3.2.0]hept-2-ene-2-carboxylic acid] | 1 to 4 | < 1 | 1 to 4 | 1 to 4 | 1 to 4 | < 1 | 1 to 4
C[C@@H](O)[C@H]1C(=O)N2C(C(=O)O)=C(SC3CN(C[C@H]4CC[C@@H](N)CC4)C3)[C@H](C)[C@H]12 [Example 64, (4R,5S,6S)-3-((1-(((1s,4S)-4-aminocyclohexyl)methyl)azetidin-3-yl)thio)-6-((R)-1-hydroxyethyl)-4-methyl-7-oxo-1-azabicyclo[3.2.0]hept-2-ene-2-carboxylic acid] | 1 to 4 | < 1 | 1 to 4 | < 1 | < 1 | < 1 | 1 to 4
C[C@@H](O)[C@H]1C(=O)N2C(C(=O)O)=C(SC3CN(C[C@H]4CC[C@H](N(C)C(=N)N)CC4)C3)[C@H](C)[C@H]12 [Example 72, (4R,5S,6S)-6-((R)-1-hydroxyethyl)-4-methyl-3-((1-(((1r,4R)-4-(1-methylguanidino)cyclohexyl)methyl)azetidin-3-yl)thio)-7-oxo-1-azabicyclo[3.2.0]hept-2-ene-2-carboxylic acid] | 1 to 4 | < 1 | 8 to 32 | 1 to 4 | < 1 | < 1 | 1 to 4
C[C@@H](O)[C@H]1C(=O)N2C(C(=O)O)=C(SC3CN(C[C@H]4CC[C@@H](NC(=N)N)CC4)C3)[C@H](C)[C@H]12 [Example 73, (4R,5S,6S)-3-((1-(((1s,4S)-4-guanidinocyclohexyl)methyl)azetidin-3-yl)thio)-6-((R)-1-hydroxyethyl)-4-methyl-7-oxo-1-azabicyclo[3.2.0]hept-2-ene-2-carboxylic acid] | 1 to 4 | < 1 | 1 to 4 | 1 to 4 | < 1 | < 1 | < 1
C[C@@H](O)[C@H]1C(=O)N2C(C(=O)O)=C(SC3CN(C[C@H]4CC[C@@H](N(C)C(=N)N)CC4)C3)[C@H](C)[C@H]12 [Example 74, (4R,5S,6S)-6-((R)-1-hydroxyethyl)-4-methyl-3-((1-(((1s,4S)-4-(1-methylguanidino)cyclohexyl)methyl)azetidin-3-yl)thio)-7-oxo-1-azabicyclo[3.2.0]hept-2-ene-2-carboxylic acid] | 1 to 4 | < 1 | 8 to 32 | 1 to 4 | 1 to 4 | < 1 | 1 to 4
CNC1CCC(CN2CC(SC3=C(C(=O)O)N4C(=O)[C@H]([C@@H](C)O)[C@H]4[C@H]3C)C2)CC1 (stereo partly drawn) [Example 66, (4R,5S,6S)-6-((R)-1-hydroxyethyl)-4-methyl-3-((1-(((1s,4S)-4-(methylamino)cyclohexyl)methyl)azetidin-3-yl)thio)-7-oxo-1-azabicyclo[3.2.0]hept-2-ene-2-carboxylic acid] | 1 to 4 | < 1 | 1 to 4 | 1 to 4 | 1 to 4 | < 1 | 1 to 4
C[C@@H](O)[C@H]1C(=O)N2C(C(=O)O)=C(SC3CN(C[C@@H]4CCNC4)C3)[C@H](C)[C@H]12 [Example 58, (4R,5S,6S)-6-((R)-1-hydroxyethyl)-4-methyl-7-oxo-3-((1-(((R)-pyrrolidin-3-yl)methyl)azetidin-3-yl)thio)-1-azabicyclo[3.2.0]hept-2-ene-2-carboxylic acid] | 1 to 4 | < 1 | 1 to 4 | 1 to 4 | 1 to 4 | < 1 | 1 to 4
C[C@@H](O)[C@H]1C(=O)N2C(C(=O)O)=C(S[C@@H]3CCN(CC4CNCCS4)C3)[C@H](C)[C@H]12 (stereo partly drawn) [Example 63, (4R,5S,6S)-6-((R)-1-hydroxyethyl)-4-methyl-7-oxo-3-(((3R)-1-(thiomorpholin-2-ylmethyl)pyrrolidin-3-yl)thio)-1-azabicyclo[3.2.0]hept-2-ene-2-carboxylic acid] | 1 to 4 | < 1 | 8 to 32 | 1 to 4 | 1 to 4 | < 1 | 1 to 4
CCN[C@H]1CC[C@@H](CN2CC(SC3=C(C(=O)O)N4C(=O)[C@H]([C@@H](C)O)[C@H]4[C@H]3C)C2)CC1 [Example 70, (4R,5S,6S)-3-((1-(((1s,4S)-4-(ethylamino)cyclohexyl)methyl)azetidin-3-yl)thio)-6-((R)-1-hydroxyethyl)-4-methyl-7-oxo-1-azabicyclo[3.2.0]hept-2-ene-2-carboxylic acid] | 1 to 4 | < 1 | 1 to 4 | 1 to 4 | 1 to 4 | < 1 | 1 to 4
C[C@@H](O)[C@H]1C(=O)N2C(C(=O)O)=C(S[C@@H]3CCN(CC4CCNCC4(C)C)C3)[C@H](C)[C@H]12 (stereo partly drawn) [Example 65, (4R,5S,6S)-3-(((3R)-1-((3,3-dimethylpiperidin-4-yl)methyl)pyrrolidin-3-yl)thio)-6-((R)-1-hydroxyethyl)-4-methyl-7-oxo-1-azabicyclo[3.2.0]hept-2-ene-2-carboxylic acid] | 1 to 4 | < 1 | 8 to 32 | 1 to 4 | 1 to 4 | < 1 | 1 to 4
C[C@@H](O)[C@H]1C(=O)N2C(C(=O)O)=C(SC3CN(C[C@H]4CC[C@H](NC(=N)N)CC4)C3)[C@H](C)[C@H]12 [Example 67, (4R,5S,6S)-3-((1-(((1r,4R)-4-guanidinocyclohexyl)methyl)azetidin-3-yl)thio)-6-((R)-1-hydroxyethyl)-4-methyl-7-oxo-1-azabicyclo[3.2.0]hept-2-ene-2-carboxylic acid] | 1 to 4 | < 1 | 1 to 4 | 1 to 4 | < 1 | < 1 | 1 to 4
